# *1 amine or outer side, *2 acyl side, *3 side chain or, on linkers, in order; H or OH if unused. Where a SMILES comes first, the peptide text is derived from it. Bridges are numbered along the chain shown (N, C = ends). Roman numbers before positions name the chains, in order. The star is where a group is joined. X1 = CN(CCCC(=O)NC(CCC(=O)[*:1])CCC(=O)[*:2])C(=O)c1ccccc1-c1c2ccc(=N)c(S(=O)(=O)O)c-2oc2c(S(=O)(=O)O)c(N)ccc12; X3 = N=c1ccc2c(-c3cc(C(=O)*)ccc3C(=O)O)c3ccc(N)c(S(=O)(=O)O)c3oc-2c1S(=O)(=O)O; X2 = NC(CCC(=O)[*:1])CCC(=O)[*:2]
# Assays:
# [1] = target: TRAIL-R2 expressed on BJAB cells (Homo sapiens, UniProt O14763); assay: LigandTracer real time binding on living BJAB cells; design: expressed in transfected cells
# Sequence of TRAIL-R2 expressed on BJAB cells (O14763 56-440): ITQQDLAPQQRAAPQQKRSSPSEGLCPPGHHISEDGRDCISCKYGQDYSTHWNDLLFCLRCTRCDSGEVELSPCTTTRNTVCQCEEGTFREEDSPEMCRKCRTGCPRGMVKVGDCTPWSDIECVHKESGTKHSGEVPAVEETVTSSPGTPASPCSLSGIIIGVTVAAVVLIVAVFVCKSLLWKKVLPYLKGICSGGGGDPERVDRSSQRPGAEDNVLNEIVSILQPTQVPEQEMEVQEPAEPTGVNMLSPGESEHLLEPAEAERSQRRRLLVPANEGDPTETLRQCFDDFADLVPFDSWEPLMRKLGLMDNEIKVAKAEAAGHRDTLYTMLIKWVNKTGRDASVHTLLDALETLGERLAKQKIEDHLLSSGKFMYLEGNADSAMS
# Description: The adherent cells HCT116-TRAIL-R2-DEF and HCT116 cells were directly plated on glass slides (Ø20 mm) (10^6 cells/well). The cells in suspension (BJAB and BJAB-TRAIL-R2-DEF) were covalently adhered to glass slides coated with poly-L-lysine (0.1% v/v) (Sigma Aldrich, Saint Louis, MO, USA). The adhesion was strong enough for measurement during 10h. After 24 hours, the slides were fixed with superglue at different locations of a Petri dish, which was inserted in the LigandTracer Green instrument (Ridgeview Instrument AB, Uppsala, Sweden). An empty spot or empty glass slide fixed to the Petri dish was used to record the background signal. This set-up allowed the simultaneous monitoring of the binding of a given peptide to different cell-carrying glass slides fixed to the dish. Three mL of solution (culture medium without or with fluorescent peptide) were added to the dish. In the LigandTracer instrument, the dish is tilted and rotates. Consequently the 3 mL solution covers only the lower part of the dish and each cell-carrying slide is alternatively in contact and out of contact with the solution (at intervals of 8 to 16 s). The fluorescence signal is recorded over time when the slide is out of the solution, and therefore corresponds to the amount of bound peptide. The solution in the dish was initially the culture medium (∼30 min) to provide a stable base line. The fluorescent peptide was then added in increasing doses (10, 30 and 90 nM) every two to three hours. Finally the peptide-containing sample was replaced with fresh medium and the dissociation of the peptide from the cells was followed overnight. The measurements were conducted at room temperature (approximately 20° C).
# (§1) Double-referenced SPR binding curves sets were fitted globally using the BIAevaluation 4.1.1 (GE Healthcare Biacore) or TraceDrawer (Ridgeview Diagnostics AB, Uppsala, Sweden) softwares. The signal recorded with the LigandTracer on an empty spot or slide was subtracted from that recorded on cell-carrying slides. The resulting binding curves were analyzed by kinetic distribution analysis using the tool Interaction Map (Ridgeview Diagnostics AB, Uppsala, Sweden). Interaction Map decomposes the kinetic curve recorded for the binding of a homogeneous ligand to a heterogeneous group of targets into its different components. Results are represented as interaction maps (kon versus koff, log scale), where the color of each populated area represents its degree of contribution to the kinetic curve (red = high contribution, blue = low contribution).
# BJAB cells = assay: Cell viability MTS assay, BJAB; assay type: cell-based, human; conditions: 24 hours
# Description: (§2) BJAB, Jurkat and HCT116 cells (10^5 cells/well) were cultured in 100 µL of culture medium in 96-flat bottom well plates. The next day, cells were treated with the indicated concentrations of the different TRAILmin/DR5 peptides. After 24 hours of treatment cell viability measurement was performed by the MTS assay according to the manufacturer specification (Promega Corporation, Madison, WI, USA).
# human TRAIL-R2 = target: T1, human TRAIL-R2 (Homo sapiens, UniProt O14763); assay: Surface plasmon resonance on sensor-immobilized TRAIL-R2; assay type: binding; conditions: for koff / kon: 25° C, Langmuir model
# T1 construct: purchased Enzo Life Sciences
# T1 sequence (O14763 56-440): as above
# Description: SPR assays were performed on a Biacore T200™, at 25° C. The running buffer was HBS-EP [10 mM HEPES (pH 7.4) containing 0.15 M NaCl, 3.4 mM EDTA and 0.005% (v/v) Tween P20]. The human TRAIL-R2 (Enzo Life Sciences, Farmingdale, NY, USA) receptor was immobilized on a sCM5 sensor chip (GE Healthcare) using the standard amine coupling procedure. The receptors were diluted in 10 mM acetate buffer (pH 5.0) at a concentration of 5 μg/mL. The TRAIL-R2 immobilization level on the sensor chip was 430 RU. Peptides were injected at a flow rate of 5 μL/min for 120 s and allowed to dissociate for an additional 420 s. Surfaces were then regenerated for 5 s with 25 mM HCl. All binding curves were double-referenced (i.e. subtraction of the data of the empty flow cell followed by the subtraction of the data from a running buffer injection cycle).
# as §1
# HCT116 cells = assay: Cell viability MTS assay, HCT116; assay type: cell-based, human; conditions: 24 hours
# Description: as §2
# TRAIL-R2 on HCT116 cells = target: T2, TRAIL-R2 on HCT116 cells (Homo sapiens, UniProt O14763); assay: Flow cytometry staining with fluorescent peptides, HCT116; assay type: binding
# T2 construct: we used BJAB, HCT116 and Jurkat that express a natural level of TRAIL-R2 receptors; endogenous in cells; host or cells: HCT116
# T2 sequence (O14763 56-440): as above
# Description: (§3) 10^6 cells were washed in PBS containing 2% FCS and then incubated at 4° C for 30 min with an anti-TRAIL-R2 antibody (clone BK9 Diaclone, Besançon, France) according to concentration recommended by the manufacturer or with fluorescent peptides at the concentration of 1 µM. After two washes in PBS-2% FBS, TRAIL-R2 expression was monitored by flow cytometry (Guava easyCyte™, Merck Milipore, Darmstadt, Germany) and data were analyzed with InCyte Software (Merck Milipore).
# [2] = target: T3, TRAIL-R2 expressed on HCT116 cells (Homo sapiens, UniProt O14763); assay: LigandTracer real time binding on living HCT116 cells; conditions: HCT116 cells expressing TRAIL-R2
# T3 construct: we used BJAB, HCT116 and Jurkat that express a natural level of TRAIL-R2 receptors; endogenous in cells; host or cells: HCT116
# T3 sequence (O14763 56-440): as above
# Description: The adherent cells HCT116-TRAIL-R2-DEF and HCT116 cells were directly plated on glass slides (Ø20 mm) (10^6 cells/well). The cells in suspension (BJAB and BJAB-TRAIL-R2-DEF) were covalently adhered to glass slides coated with poly-L-lysine (0.1% v/v) (Sigma Aldrich, Saint Louis, MO, USA). The adhesion was strong enough for measurement during 10h. After 24 hours, the slides were fixed with superglue at different locations of a Petri dish, which was inserted in the LigandTracer Green instrument (Ridgeview Instrument AB, Uppsala, Sweden). An empty spot or empty glass slide fixed to the Petri dish was used to record the background signal. This set-up allowed the simultaneous monitoring of the binding of a given peptide to different cell-carrying glass slides fixed to the dish. […] The fluorescence signal is recorded over time when the slide is out of the solution, and therefore corresponds to the amount of bound peptide. […]
# Double-referenced SPR binding curves sets were fitted globally using the BIAevaluation 4.1.1 (GE Healthcare Biacore) or TraceDrawer (Ridgeview Diagnostics AB, Uppsala, Sweden) softwares. The signal recorded with the LigandTracer on an empty spot or slide was subtracted from that recorded on cell-carrying slides. The resulting binding curves were analyzed by kinetic distribution analysis using the tool Interaction Map (Ridgeview Diagnostics AB, Uppsala, Sweden). […]
# TRAIL-R2 on BJAB cells = target: T4, TRAIL-R2 on BJAB cells (Homo sapiens, UniProt O14763); assay: Flow cytometry staining with fluorescent peptides, BJAB; assay type: binding
# T4 construct: expressed in transfected cells
# T4 sequence (O14763 56-440): as above
# Description: as §3
# Jurkat cells = assay: Cell viability MTS assay, Jurkat; assay type: cell-based, human; conditions: 24 hours
# Description: as §2
# [3] = TRAIL-R2 surface 1, one:one interaction model
# [4] = TRAIL-R2 surface 2, one:one interaction model
Compound,cell surface binding ([1]; BJAB cells expressing TRAIL-R2),apoptosis induction in BJAB cells (BJAB cells),koff (human TRAIL-R2; SPR),kon (human TRAIL-R2; SPR),Rmax (human TRAIL-R2; [3]),Rmax (human TRAIL-R2; [4]),cell surface binding ([1]; BJAB cells deficient for TRAIL-R2),"fluorescent signal reached ([1]; BJAB cells that expressed TRAIL-R2, 10, 30 and (f1d) 90 nM)",apoptosis induction in HCT116 cells (HCT116 cells),"binding by flow cytometry (TRAIL-R2 on HCT116 cells; HCT116 cells deficient for TRAIL-R2, peptide 1 µM)","binding by flow cytometry (TRAIL-R2 on HCT116 cells; HCT116 cells expressing TRAIL-R2, peptide 1 µM)",cell surface binding [2],"binding by flow cytometry (TRAIL-R2 on BJAB cells; BJAB cells deficient for TRAIL-R2, peptide 1 µM)","binding by flow cytometry (TRAIL-R2 on BJAB cells; BJAB cells expressing TRAIL-R2, peptide 1 µM)",apoptosis induction in Jurkat cells (Jurkat cells),"KD of 2d smaller than KD of 1d (human TRAIL-R2; SPR, ratio of KD 1d to 2d)"
CC[C@H](C)[C@@H]1NC(=O)[C@H](CCCNC(=N)N)NC(=O)[C@H](CC(N)=O)NC(=O)[C@H](CC(=O)O)NC(=O)[C@H](CC(C)C)NC(=O)[C@@H](NC(=O)[C@H](CC(=O)O)NC(=O)[C@H](Cc2c[nH]c3ccccc23)NC(C)=O)CSSC[C@@H](C(=O)N[C@H](C(=O)N[C@@H](CCCCNC(=O)c2ccc(C(=O)O)c(-c3c4ccc(=N)c(S(=O)(=O)O)c-4oc4c(S(=O)(=O)O)c(N)ccc34)c2)C(=O)N[C@@H](CC(C)C)C(N)=O)C(C)C)NC(=O)[C@H](CCC(N)=O)NC(=O)[C@H](CCCNC(=N)N)NC(=O)[C@H](CCCNC(=N)N)NC(=O)CNC1=O [f1m] (Ac-WDCLDNRIGRRQCVK(X3)L-NH2; disulfide 3-13; N-terminus and C-terminus assumed),weak binding,did not induce apoptosis,0.0014 s⁻¹,14000 M⁻¹ s⁻¹,–,–,–,–,–,–,–,–,–,–,–,–
CC[C@H](C)[C@@H]1NC(=O)[C@H](CCCNC(=N)N)NC(=O)[C@H](CC(N)=O)NC(=O)[C@H](CC(=O)O)NC(=O)[C@H](CC(C)C)NC(=O)[C@@H](NC(=O)[C@H](CC(=O)O)NC(=O)[C@H](Cc2c[nH]c3ccccc23)NC(C)=O)CSSC[C@@H](C(=O)N[C@H](C(=O)N[C@@H](CCCNC(=N)N)C(=O)N[C@@H](CC(C)C)C(N)=O)C(C)C)NC(=O)[C@H](CCC(N)=O)NC(=O)[C@H](CCCNC(=N)N)NC(=O)[C@H](CCCCN)NC(=O)CNC1=O [2m] (Ac-WDCLDNRIGKRQCVRL-NH2; disulfide 3-13; N-terminus and C-terminus assumed),–,–,0.016 s⁻¹,3600 M⁻¹ s⁻¹,–,–,–,–,–,–,–,–,–,–,–,–
CC[C@H](C)[C@@H]1NC(=O)[C@H](CCCNC(=N)N)NC(=O)[C@H](CC(N)=O)NC(=O)[C@H](CC(=O)O)NC(=O)[C@H](CC(C)C)NC(=O)[C@@H](NC(=O)[C@H](CC(=O)O)NC(=O)[C@H](Cc2c[nH]c3ccccc23)NC(C)=O)CSSC[C@@H](C(=O)N[C@H](C(=O)N[C@@H](CCCCN)C(=O)N[C@@H](CC(C)C)C(N)=O)C(C)C)NC(=O)[C@H](CCC(N)=O)NC(=O)[C@H](CCCNC(=N)N)NC(=O)[C@H](CCCNC(=N)N)NC(=O)CNC1=O [1m] (Ac-WDCLDNRIGRRQCVKL-NH2; disulfide 3-13; N-terminus and C-terminus assumed),–,–,0.0026 s⁻¹,5300 M⁻¹ s⁻¹,33,11,–,–,–,–,–,–,–,–,–,–
"CC[C@H](C)[C@@H]1NC(=O)[C@H](CCCNC(=N)N)NC(=O)[C@H](CC(N)=O)NC(=O)[C@H](CC(=O)O)NC(=O)[C@H](CC(C)C)NC(=O)[C@@H](NC(=O)[C@H](CC(=O)O)NC(=O)[C@H](Cc2c[nH]c3ccccc23)NC(C)=O)CSSC[C@@H](C(=O)N[C@H](C(=O)N[C@@H](CCCCNC(=O)CCC(CCC(=O)NCCCC[C@H](NC(=O)[C@@H](NC(=O)[C@@H]2CSSC[C@H](NC(=O)[C@H](CC(=O)O)NC(=O)[C@H](Cc3c[nH]c4ccccc34)NC(C)=O)C(=O)N[C@@H](CC(C)C)C(=O)N[C@@H](CC(=O)O)C(=O)N[C@@H](CC(N)=O)C(=O)N[C@@H](CCCNC(=N)N)C(=O)N[C@@H]([C@@H](C)CC)C(=O)NCC(=O)N[C@@H](CCCNC(=N)N)C(=O)N[C@@H](CCCNC(=N)N)C(=O)N[C@@H](CCC(N)=O)C(=O)N2)C(C)C)C(=O)N[C@@H](CC(C)C)C(N)=O)NC(=O)CCCN(C)C(=O)c2ccccc2-c2c3ccc(=N)c(S(=O)(=O)O)c-3oc3c(S(=O)(=O)O)c(N)ccc23)C(=O)N[C@@H](CC(C)C)C(N)=O)C(C)C)NC(=O)[C@H](CCC(N)=O)NC(=O)[C@H](CCCNC(=N)N)NC(=O)[C@H](CCCNC(=N)N)NC(=O)CNC1=O (stereo partly drawn) [f1d] (I: Ac-WDCLDNRIGRRQCVKL-NH2 / II: Ac-WDCLDNRIGRRQCVKL-NH2; disulfide I:3-I:13, II:3-II:13; linker I:15-II:15 via X1; N-terminus and C-terminus assumed)",strong binding,induced apoptosis,0.0014 s⁻¹,22000 M⁻¹ s⁻¹,–,–,weak signals,> 25,scarcely induced their apoptosis,not,bound,bound weakly,not,bound,–,–
"CC[C@H](C)[C@@H]1NC(=O)[C@H](CCCNC(=N)N)NC(=O)[C@H](CC(N)=O)NC(=O)[C@H](CC(=O)O)NC(=O)[C@H](CC(C)C)NC(=O)[C@@H](NC(=O)[C@H](CC(=O)O)NC(=O)[C@H](Cc2c[nH]c3ccccc23)NC(C)=O)CSSC[C@@H](C(=O)N[C@H](C(=O)N[C@@H](CCCNC(=N)N)C(=O)N[C@@H](CC(C)C)C(N)=O)C(C)C)NC(=O)[C@H](CCC(N)=O)NC(=O)[C@H](CCCNC(=N)N)NC(=O)[C@H](CCCCNC(=O)CCC(N)CCC(=O)NCCCC[C@@H]2NC(=O)CNC(=O)[C@H]([C@@H](C)CC)NC(=O)[C@H](CCCNC(=N)N)NC(=O)[C@H](CC(N)=O)NC(=O)[C@H](CC(=O)O)NC(=O)[C@H](CC(C)C)NC(=O)[C@@H](NC(=O)[C@H](CC(=O)O)NC(=O)[C@H](Cc3c[nH]c4ccccc34)NC(C)=O)CSSC[C@@H](C(=O)N[C@H](C(=O)N[C@@H](CCCNC(=N)N)C(=O)N[C@@H](CC(C)C)C(N)=O)C(C)C)NC(=O)[C@H](CCC(N)=O)NC(=O)[C@H](CCCNC(=N)N)NC2=O)NC(=O)CNC1=O (stereo partly drawn) [2d] (I: Ac-WDCLDNRIGKRQCVRL-NH2 / II: Ac-WDCLDNRIGKRQCVRL-NH2; disulfide I:3-I:13, II:3-II:13; linker I:10-II:10 via X2; N-terminus and C-terminus assumed)",–,underwent apoptosis,0.00018 s⁻¹,1.5e+06 M⁻¹ s⁻¹,33,12,–,–,strong resistance,–,–,–,–,–,strong resistance,approximately 400 fold
